Test results: patent US5739117A, “Agent for improving cerebral metabolism including glucose ester derivatives” (Fujimoto Pharmaceutical Co., Ltd., priority 1993, dated 1998)

Tests used:
[1] = Kinetic changes in radioactivities in the blood and the cerebral tissue after intravenous injection; type: in vivo, mice (ddy strain); details: mice, i.v. tail vein
Procedure: Normal male mice of the ddy strain at 6 weeks of age were injected intravenously through tail vein with 0.05 ml of […] ^18 F in DMSO solution.
Kinetic changes in radioactivities in the blood and the cerebral tissue of the mice injected with ^18 F-AFDG.

[2] = Intra-cerebral and blood concentrations of ^18 F-AFDG and its metabolites after intravenous injection; type: in vivo; details: mice
Procedure: Mice were given an intravenous injection of 0.05 ml solution of 0.5 mM ^18 F-AFD in DMSO.

time up to which levels of radioactivity in the cerebral tissue increased ([1]; 0.05 ml in DMSO, FIG. 1) | proportion that reached the cerebral tissue ([2]; i.v., 0.05 ml of 0.5 mM in DMSO, within 0.5 minute following administration) | time of emergence of intra-cerebral metabolites ([2]; i.v. ^18 F-AFDG, 0.5 mM in DMSO, cerebral tissue) | concentration in the cerebral tissue over time ([2]; i.v. ^18 F-AFDG, after 0.5 minute, FIG. 3) | Compound | blood radioactivity levels ([1]; 0.05 ml in DMSO, following administration) | radioactivity in the cerebral tissue after administration ([1]; 0.05 ml in DMSO, immediately after administration) | radioactivity in the cerebral tissue compared with blood ([1]; at 10 minutes of administration and thereafter) | extent metabolized into ^18 F-FDG-6-phosphate ([2]; i.v., cerebral tissue, at 180 minutes) | proportion among ^18 F-AFDG and metabolites in the cerebral tissue ([2]; i.v. ^18 F-AFDG, at 5, 60 and 180 minutes, compared with blood, FIGS. 4 and 5)
30 min | approximately 40% | – | – | CC(=O)OC[C@H]1OC(OC(C)=O)[C@H]([18F])[C@@H](OC(C)=O)[C@@H]1OC(C)=O (stereo partly drawn) [^18 F-AFDG, 1,3,4,6-tetra-O-acetyl-2-^18 F-D-glucose] | decreased consistently following administration | could be detected in the cerebral tissue immediately after administration | higher in the cerebral tissue than in the blood | the entire ^18 F-AFDG was found to be metabolized into ^18 F-FDG-6-phosphate | –
– | – | ≤ 0.5 min | raised markedly | O=P(O)(O)OC[C@H]1OC(O)[C@H]([18F])[C@@H](O)[C@@H]1O (stereo partly drawn) [^18 F-FDG-6-phosphate] | – | – | – | – | highest proportion in the cerebral tissue
